In general, DC50 refers to the midpoint of the concentration-degradation curve. A low value points to degradation at low concentration. As a reminder, the Dmax is the greatest extent of degradation seen.

This note sets out measurements from US12427144B2, “Compounds and methods for the targeted degradation of androgen receptor” (Arvinas Operations, Inc., priority 2019, dated 2025).

Structures are written as SMILES.

For this assay, the target named is T1, Androgen Receptor (AR) (Homo sapiens, UniProt P10275).
T1 construct: endogenous in cells; host or cells: VCaP
T1 sequence (P10275 1-920): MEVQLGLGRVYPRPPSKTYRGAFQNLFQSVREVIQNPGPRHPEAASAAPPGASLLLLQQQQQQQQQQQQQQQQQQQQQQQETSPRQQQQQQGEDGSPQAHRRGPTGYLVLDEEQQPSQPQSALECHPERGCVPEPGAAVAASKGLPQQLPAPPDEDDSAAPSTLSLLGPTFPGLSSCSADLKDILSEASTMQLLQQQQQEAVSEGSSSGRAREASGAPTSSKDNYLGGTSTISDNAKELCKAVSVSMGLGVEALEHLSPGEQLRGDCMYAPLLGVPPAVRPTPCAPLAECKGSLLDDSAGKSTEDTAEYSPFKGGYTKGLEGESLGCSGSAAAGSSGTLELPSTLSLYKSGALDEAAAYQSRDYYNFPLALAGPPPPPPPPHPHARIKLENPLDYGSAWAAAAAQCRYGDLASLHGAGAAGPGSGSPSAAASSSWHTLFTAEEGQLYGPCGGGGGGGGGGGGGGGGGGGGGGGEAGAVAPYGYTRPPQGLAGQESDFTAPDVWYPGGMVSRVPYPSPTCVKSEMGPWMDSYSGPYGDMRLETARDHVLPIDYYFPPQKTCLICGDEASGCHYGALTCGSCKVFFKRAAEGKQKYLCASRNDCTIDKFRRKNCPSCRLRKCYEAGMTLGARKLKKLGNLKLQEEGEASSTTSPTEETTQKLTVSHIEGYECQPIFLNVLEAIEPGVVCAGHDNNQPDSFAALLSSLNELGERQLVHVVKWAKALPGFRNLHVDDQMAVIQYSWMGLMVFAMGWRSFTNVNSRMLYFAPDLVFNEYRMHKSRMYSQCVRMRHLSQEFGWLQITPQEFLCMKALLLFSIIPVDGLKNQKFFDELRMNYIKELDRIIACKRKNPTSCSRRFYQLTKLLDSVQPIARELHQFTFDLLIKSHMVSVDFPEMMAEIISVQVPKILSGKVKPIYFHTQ
Briefly: AR immunofluorescence staining, high content imager, VCaP cells. Particulars: for DC50: AR degradation by immunofluorescence; for Dmax: maximal AR degradation. The assay is classed as cell-based. Here is the method:
AR Immunofluorescence Staining of Cells for the High Content Imager was performed as follows: Following treatment of the cells with compound (using the central 60 wells of a 96-well plate), media was removed by aspiration, followed by addition of 50 μL per well of 4% paraformaldehyde (PFA) in PBS supplemented with 2 mM MgCl2 and 2 mM CaCl2. Fixed cells were incubated at RT for 15 minutes. For particularly low adherence cell lines (e.g., VCaP), a 2× solution of 8% PFA was added directly to wells instead. Cells were washed once with 200 μL PBS/well. To permeabilize cells 50 μL/well of 0.1% Triton X-100 in PBS was added and incubated for 5 minutes. Cells were washed once with 200 μL PBSS/well. 100 μL/well of Licor Odyssey Blocking Buffer was added for 1 hour at 20° C. Wells were aspirated and AR antibody (1:1000 in Licor Odyssey blocking buffer; 50 μL/well; CST 5153s) was added. Plates were incubated overnight at 4° C. Plates were washed 3 times with 200 EL PBS/well. The appropriate secondary antibody was added (50 μL/well; diluted in Licor Odyssey blocking buffer) and incubated for 1 hour at RT in the dark as prepared below using Anti-rabbit FITC (1:5000; […]) and Phalloidin-Alexafluor 648 (1:500; […]). Cells were washed once with 200 μL PBS/well. 50 μL DAPI or Hoechst 33342 diluted 1:1000 in Licor Odyssey blocking buffer was added to the wells. Cells were washed 3 times with 200 μL PBS/well. The plates were covered with a clear plastic sealer and refrigerated in the dark until ready to analyze. The cells were analyzed using a Molecular Devices IXM high content imager and analyzed using Molecular Devices metaXpress software suite.

Take `CC(C)N(CC1CCN(c2cnc(C(=O)N[C@H]3CC[C@H](Oc4ccc(C#N)c(Cl)c4)CC3)cn2)CC1)[C@H]1C[C@H](Oc2ccc(C(=O)NC3CCC(=O)NC3=O)cc2)C1` (some centres unmarked) [Compound 27, N-[4-(3-chloro-4-cyano-phenoxy)cyclohexyl]-5-[4-[[[3-[4-[(2,6-dioxo-3-piperidyl)carbamoyl]phenoxy]cyclobutyl]-isopropyl-amino]methyl]-1-piperidyl]pyrazine-2-carboxamide]: the DC50 was less than 1 nM and the Dmax is not below 70%.

In the case of `N#Cc1ccc(O[C@H]2CC[C@H](NC(=O)c3ccc(N4CCC(CN5CCN(c6ccc(C(=O)NC7CCC(=O)NC7=O)nn6)CC5)CC4)nn3)CC2)cc1Cl` (some centres unmarked) [Compound 28, N-[4-(3-chloro-4-cyano-phenoxy)cyclohexyl]-6-[4-[[4-[6-[(2,6-dioxo-3-piperidyl)carbamoyl]pyridazin-3-yl]piperazin-1-yl]methyl]-1-piperidyl]pyridazine-3-carboxamide], the DC50 was less than 1 nM and the Dmax is not below 70%.

Consider `N#Cc1ccc(O[C@H]2CC[C@H](NC(=O)c3ccc(N4CCC(CN5CCN(c6cccc(C(=O)NC7CCC(=O)NC7=O)c6)CC5)CC4)nn3)CC2)cc1Cl` (stereo partly drawn) [Compound 29, N-((1R,4R)-4-(3-chloro-4-cyanophenoxy)cyclohexyl)-6-(4-((4-(3-((2,6-dioxopiperidin-3-yl)carbamoyl)phenyl)piperazin-1-yl)methyl)piperidin-1-yl)pyridazine-3-carboxamide], for which the 50% degradation concentration (DC50) was less than 1 nM and the Dmax was less than 50%.

With `N#Cc1ccc(O[C@H]2CC[C@H](NC(=O)c3ccc(N4CCC(CN5CCN(c6ccc(C(=O)NC7CCC(=O)NC7=O)cn6)CC5)CC4)nn3)CC2)cc1Cl` (stereo partly drawn) [Compound 30, N-((1R,4R)-4-(3-chloro-4-cyanophenoxy)cyclohexyl)-6-(4-((4-(5-((2,6-dioxopiperidin-3-yl)carbamoyl)pyridin-2-yl)piperazin-1-yl)methyl)piperidin-1-yl)pyridazine-3-carboxamide], the DC50 is less than 1 nM and the greatest degradation seen (Dmax) was not below 70%.

In turn, `CN(C(=O)c1ccc(N2CCN(CC3CCN(c4ccc(C(=O)N[C@H]5CC[C@H](Oc6ccc(C#N)c(Cl)c6)CC5)nn4)CC3)CC2)cc1F)C1CCC(=O)NC1=O` (stereo partly drawn) [Compound 31, N-((1R,4R)-4-(3-chloro-4-cyanophenoxy)cyclohexyl)-6-(4-((4-(4-((2,6-dioxopiperidin-3-yl)(methyl)carbamoyl)-3-fluorophenyl)piperazin-1-yl)methyl)piperidin-1-yl)pyridazine-3-carboxamide] came in with a DC50 of less than 1 nM and a Dmax of 50 to 70%.

`CCN(C(=O)c1ccc(N2CCN(CC3CCN(c4ccc(C(=O)N[C@H]5CC[C@H](Oc6ccc(C#N)c(Cl)c6)CC5)nn4)CC3)CC2)cc1)C1CCC(=O)NC1=O` (stereo partly drawn) [Compound 32, N-((1R,4R)-4-(3-chloro-4-cyanophenoxy)cyclohexyl)-6-(4-((4-(4-((2,6-dioxopiperidin-3-yl)(ethyl)carbamoyl)phenyl)piperazin-1-yl)methyl)piperidin-1-yl)pyridazine-3-carboxamide] returned a DC50 not below 100 nM and a Dmax of less than 50%.

Consider `Cc1cc(O[C@H]2C(C)(C)[C@H](NC(=O)c3ccc(N4CCC(CN5CCN(c6cnc(C(=O)N[C@H]7CCC(=O)NC7=O)cn6)CC5)CC4)cc3)C2(C)C)cc(C)c1C#N` [Compound 33, 5-[4-[[1-[4-[[3-(4-cyano-3,5-dimethyl-phenoxy)-2,2,4,4-tetramethyl-cyclobutyl]carbamoyl]phenyl]-4-piperidyl]methyl]piperazin-1-yl]-N-[(3S)-2,6-dioxo-3-piperidyl]pyrazine-2-carboxamide], for which the DC50 was less than 1 nM and the Dmax was not below 70%.
